# Laboratory results taken from patent US20160263131A1, “TREATMENT OF HEPATIC FIBROSIS USING AN INHIBITOR OF CBP/CATENIN” (priority 2013, published 2016).
# Columns and labels:
# NASH mice [1] = test: Sirius red staining, fibrosis area in liver of NASH mice; type: in vivo, C57BL/6J mice; details: for Sirius red-positive area (fibrosis area): NASH mice, 13 weeks of age, mean ± SD, n = 8, Vehicle 1.02 ± 0.33
# Description: C57BL/6J mice (15-day pregnant female) were obtained from Charles River Laboratories Japan (Kanagawa, Japan). All animals used in this study were housed and cared for in accordance with the Japanese Pharmacological Society Guidelines for Animal Use. The animals were maintained in a SPF facility under controlled conditions of temperature (23±2° C.), humidity (45±10%), lighting (12-hour artificial light and dark cycles; light from 8:00 to 20:00) and air exchange. A high pressure (20±4 Pa) was maintained in the experimental room to prevent contamination of the facility. The animals were housed in polycarbonate cages KN-600 (Natsume Seisakusho, Japan) with a maximum of 4 mice per cage. Sterilized PULMASμ (Material Research Center, Japan) was used for bedding and replaced once a week. Sterilized solid HFD was provided ad libitum, being placed in the metal lid on top of the cage. Pure water was provided ad libitum from a water bottle equipped with a rubber stopper and a sipper tube. Water bottles were replaced once a week, cleaned and sterilized in autoclave and reused. Mice were identified by numbers engraved on earrings. Each cage was labeled with a specific identification code.
# [2] = Body weight and general condition of NASH mice; details: for Mean body weight at sacrifice / Mean body weight during the treatment period: NASH mice; for Mean body weight at sacrifice: mean±SD, Vehicle 22.9±2.9, no significant difference; for Mean body weight during the treatment period: versus vehicle group
# Description: (§1) The viability, clinical signs and behavior were monitored daily. Body weight was recorded daily before drug administration. […] The animals were sacrificed by exsanguination through direct cardiac puncture under ether anesthesia (Wako Pure Chemical Industries).
# NASH mice [3] = test: Liver weight and liver-to-body weight ratio in NASH mice; type: in vivo, C57BL/6J mice; details: mean±SD; for Liver-to-body weight ratio: Vehicle 8.1±1.1, no significant difference; for Mean liver weight: Vehicle 1870±418, no significant difference
# Description: as §1
# NASH mice [4] = test: Whole blood glucose in NASH mice; type: in vivo, C57BL/6J mice; details: mean±SD
# Description: (§2) Non-fasting blood glucose was measured in whole blood using Life Check (EIDIA, Japan). For serum biochemistry, blood was collected in polypropylene tubes without anticoagulant and kept at room temperature for 30 minutes, followed by at 4° C. for 1 hour. The blood samples were then centrifuged at 1,000×g for 15 minutes at 4° C. The supernatant was collected and stored at −80° C. until use. Serum ALT and TG levels were measured by FUJI DRI-CHEM 7000 (Fujifilm, Japan).
# NASH mice [5] = test: Serum ALT in NASH mice; type: in vivo, C57BL/6J mice; details: mean±SD, Vehicle 58±29, no significant difference
# Description: as §2
# NASH mice [6] = test: Liver hydroxyproline content in NASH mice; type: in vivo, C57BL/6J mice; details: μg per mg total protein, mean±SD, Vehicle 0.79±0.19, no significant difference
# Description: To quantify liver hydroxyproline content, frozen liver samples (35-45 mg) were processed by an alkaline-acid hydrolysis method as follows: the livers were defatted with 100% acetone, dried in the air, dissolved in 2N NaOH at 65° C., and autoclaved at 121° C. for 20 minutes. The lysed samples (400 μL) were acid-hydrolyzed with 400 μL of 6N HCl at 121° C. for 20 minutes, and neutralized with 400 μL of 4N NaOH containing 10 mg/mL activated carbon. AC buffer (2.2M acetic acid/0.48M citric acid, 400 μL) was added to the samples, followed by centrifugation to collect the supernatant. To construct a standard curve of hydroxyproline, serial dilutions of trans-4-hydroxy-Lproline (Sigma-Aldrich) were prepared starting at 16 μg/mL. The prepared samples and standards (each 400 μL) were mixed with 400 μL chloramine T solution (Wako Pure Chemical Industries, Japan) and incubated for 25 minutes at room temperature. The samples were then mixed with Ehrlich's solution (400 μL) and heated at 65° C. for 20 minutes to develop the color. After samples were cooled on ice and centrifuged to remove precipitates, the optical density of each supernatant was measured at 560 nm. The concentrations of hydroxyproline were calculated from the hydroxyproline standard curve. Protein concentrations of liver samples were determined using a BCA protein assay kit (Thermo Fisher Scientific, USA) and used to normalize the calculated hydroxyproline values. Hydroxyproline levels were expressed as μg per mg total protein.
# TIMP-1 = test: Quantitative RT-PCR of liver, TIMP-1 mRNA, NASH mice; type: in vivo, C57BL/6J mice; details: 13 weeks of age, mean ± SD, n = 8, Vehicle 7.74 ± 4.15, no significant difference
# Description: (§3) Total RNA was extracted from liver samples using RNAiso (Takara Bio, Japan) according to the manufacturer's instructions. One μg of RNA was reverse-transcribed using a reaction mixture containing 4.4 mM MgCl2 (Roche, Switzerland), 40 U RNase inhibitor (Toyobo, Japan), 0.5 mM dNTP (Promega, USA), 6.28 μM random hexamer (Promega), 5× first strand buffer (Promega), 10 mM dithiothreitol (Invitrogen, USA) and 200 U MMLV-RT (Invitrogen) in a final volume of 20 μL. The reaction was carried out for 1 hour at 37° C., followed by 5 minutes at 99° C. Real-time PCR was performed using real-time PCR DICE and SYBR premix Taq (Takara Bio). To calculate the relative mRNA expression level, the expression of each gene was normalized to that of reference gene 36B4 (gene symbol: Rplp0). Information of PCR-primer sets and the plate layout was described in Table 1.
# Collagen Type 3 = test: Quantitative RT-PCR of liver, Collagen Type 3 mRNA, NASH mice; type: in vivo, C57BL/6J mice; details: 13 weeks of age, mean ± SD
# Description: as §3
# NASH mice [7] = test: HE staining and NAFLD Activity score in NASH mice; details: for NAFLD Activity score (NAS): mean±SD, Vehicle 5.9±1.0, tended to decrease
# Description: NASH was induced in 40 male mice by a single subcutaneous injection of 200 μg streptozotocin (Sigma-Aldrich, USA) 2 days after birth and feeding with high fat diet (HFD, 57 kcal % fat, cat# HFD32, CLEA Japan, Japan) after 4 weeks of age. The mice were randomized into 5 groups of 8 mice at 9 weeks of age. Eight male littermates, fed with normal diet (cat# CE-2, CLEA Japan) without streptozotocin treatment, were used for the Normal group.
# The test substance solution was filled in the osmotic pumps at concentrations determined based on the individual body weight at the start of treatment (day 0). Telmisartan was administered by oral route in a volume of 10 mL/kg body weight.
# Telmisartan was administered once daily at a dose of 10 mg/kg body weight.
# For HE staining, sections were cut from paraffin blocks of liver tissue prefixed in Bouin's solution and stained with Lillie-Mayer's Hematoxylin (Muto Pure Chemicals, Japan) and eosin solution (Wako Pure Chemical Industries).
# [8] = high dose 3 mg/kg/day s.c. infusion 9-13 wks
# [9] = low dose 1 mg/kg/day s.c. infusion 9-13 wks
compound,measurement,setting,value
"C[C@H]1[C@H]2N(C(=O)CN(C)N2C(=O)NCc2ccccc2)[C@@H](Cc2ccc(OP(=O)(O)O)cc2)C(=O)N1Cc1cccc2cccnc12 [Compound A, 4-(((6S,9S,9aS)-1-(benzylcarbamoyl)-2,9-dimethyl-4,7-dioxo-8-(quinolin-8-ylmethyl)octahydro-1H-pyrazino[2,1-c][1,2,4]triazin-6-yl)methyl)phenyl dihydrogen phosphate]",Sirius red-positive area (fibrosis area),"NASH mice [1]; high dose 3 mg/kg/day continuous s.c. infusion 9-13 wks, significantly decreased, 3 mg/kg/day",0.67±0.21%
same,Sirius red-positive area (fibrosis area),"NASH mice [1]; low dose 1 mg/kg/day continuous s.c. infusion 9-13 wks, no significant difference, 1 mg/kg/day",0.82±0.31%
same,Fibrosis (FIG. 1 legend),"NASH mice [1]; NASH rat model as printed in the legend, FIG. 1 shows high-dose 3 mg/kg/day versus Vehicle",reduces fibrosis
same,Mean body weight at sacrifice,[2]; [8],23.7 ± 1.1 g
same,Mean body weight during the treatment period,[2]; high dose 3 mg/kg/day s.c. infusion,no significant differences
same,Mean body weight at sacrifice,[2]; [9],22.6 ± 2.6 g
same,Mean body weight during the treatment period,[2]; low dose 1 mg/kg/day s.c. infusion,no significant differences
same,General condition,"[2]; any of the animals (all groups), throughout the treatment period",No deterioration
same,Liver-to-body weight ratio,NASH mice [3]; [8],8.5±0.6%
same,Mean liver weight,NASH mice [3]; [8],2024 ± 159 mg
same,Liver-to-body weight ratio,NASH mice [3]; [9],8.0±0.8%
same,Mean liver weight,NASH mice [3]; [9],1803 ± 219 mg
same,Whole blood glucose (non-fasting),"NASH mice [4]; high dose 3 mg/kg/day s.c. infusion 9-13 wks, Vehicle 605±134, tended to increase",791 ± 54 mg/dL
same,Whole blood glucose (non-fasting),"NASH mice [4]; low dose 1 mg/kg/day s.c. infusion 9-13 wks, Vehicle 605±134, no significant difference",677 ± 36 mg/dL
same,Serum ALT,NASH mice [5]; [8],49±17 U/L
same,Serum ALT,NASH mice [5]; [9],45±17 U/L
same,Liver hydroxyproline content,NASH mice [6]; [8],0.95 ± 0.22 µg/mg
same,Liver hydroxyproline content,NASH mice [6]; [9],0.90 ± 0.26 µg/mg
same,"TIMP-1 mRNA expression level (relative, normalized to 36B4)","TIMP-1; high dose 3 mg/kg/day s.c. infusion 9-13 wks, 3 mg/kg/day",6.73±2.23
same,"TIMP-1 mRNA expression level (relative, normalized to 36B4)","TIMP-1; low dose 1 mg/kg/day s.c. infusion 9-13 wks, 1 mg/kg/day",5.35±2.82
same,"Collagen Type 3 mRNA expression level (relative, normalized to 36B4)","Collagen Type 3; high dose 3 mg/kg/day s.c. infusion 9-13 wks, n = 8, Vehicle 3.09 ± 1.51, tended to be down-regulated, 3 mg/kg/day",2.22±0.46
same,"Collagen Type 3 mRNA expression level (relative, normalized to 36B4)","Collagen Type 3; low dose 1 mg/kg/day s.c. infusion 9-13 wks, n = 8, Vehicle 3.09 ± 1.51, significantly down-regulated, 1 mg/kg/day",1.93±0.37
same,"HE-stained liver sections, difference from Vehicle group",NASH mice [7]; [8],No obvious difference
same,NAFLD Activity score (NAS),NASH mice [7]; [8],5.1±0.6
same,HE-stained liver sections: lobular inflammation,"NASH mice [7]; low dose 1 mg/kg/day s.c. infusion 9-13 wks, compared with the Vehicle group",improved
same,NAFLD Activity score (NAS),NASH mice [7]; [9],4.8±0.9
